From BigSolDB 2.1
Where a SMILES comes first, the peptide text is derived from it. [ ]: non-standard residue; d: D form. pGlu = O=C1CC[C@@H](C(=O)O)N1; Thz = O=C(O)[C@@H]1CSCN1

O=C1CC[C@@H](C(=O)N2CSC[C@H]2C(=O)O)N1 ([pGlu]-[Thz]-OH)
solubility (mole fraction)
Conditions	278.15 K	283.15 K	288.15 K	293.15 K	298.15 K	303.15 K	308.15 K	313.15 K	318.15 K	323.15 K
in DMF	0.00535	0.00604	0.00734	0.00953	0.0123	0.0151	0.0182	0.0214	0.0253	0.0291
in acetone	3.1e-05	5e-05	8.5e-05	0.000121	0.000176	0.000249	0.000354	0.000522	0.000693	0.000925
in acetonitrile	0.000297	0.000336	0.000426	0.00052	0.000691	0.000855	0.00107	0.00132	0.00159	0.00195
in benzyl alcohol	0.00226	0.00262	0.00307	0.00374	0.00452	0.00553	0.00661	0.00806	0.0101	0.0128
in ethanol	8.3e-05	0.000128	0.000198	0.000303	0.00045	0.000679	0.000986	0.00144	0.00208	0.00292
in isopropanol	9.1e-05	0.000138	0.000209	0.000307	0.000454	0.000663	0.000945	0.00136	0.0019	0.00265
in methanol	0.00121	0.00137	0.00157	0.00184	0.00216	0.00257	0.00305	0.00365	0.00437	0.00528
in n-butanol	0.000227	0.000282	0.000354	0.000439	0.000566	0.00072	0.000908	0.0012	0.00151	0.00197
in water	0.00163	0.00181	0.00205	0.00234	0.0027	0.00313	0.00368	0.00434	0.00509	0.00604
